This is an account of results in patent US20210214385A1, “INHIBITORS OF D-AMINO ACID OXIDASE AND USES THEREOF” (SyneuRx International (Taiwan) Corp., priority 2018, published 2021).

Structures are written as SMILES.

Series [1] has as its target human D-amino acid oxidase (hDAAO) (Homo sapiens, UniProt P14920). Kind of series: In vitro measurement of human D-amino acid oxidase (hDAAO) activity, D-Serine substrate, Amplex Red fluorescence. The class given is biochemical.
A further series concerns MK-801 treated mice. Kind of series: Pre-pulse inhibition in MK-801 treated mice. The conditions noted are these: 30 mg/kg oral, MK-801 0.3 mg/kg i.p., male mice. The class given is in vivo. Here is the method:
C57BL/6J male mice were group housed under the same condition as described in Example 1. Mice were randomly assigned into three groups, Group 1: vehicle control, Group 2: MK-801, Group 3: Cpd 24 (30 mg/kg)+MK-801. Mice in Group 2-3 received an acute intraperitoneal (i.p.) injection of MK-801 (Sigma-Aldrich USA), a NMDA receptor antagonist, dissolved in normal saline, at 0.3 mg/kg 20 minutes prior to the pre-pulse inhibition test. Each mouse in Group 1-2 and Group 3 received, respectively, an acute oral administration of 65% PEG400 in ddH2O and compound 24 at 30 mg/kg (dissolved with 65% PEG400 in ddH2O) 20 minutes prior to the MK-801 administration.
Pre-pulse inhibition, using SR-LAB startle apparatus (San Diego Instruments, San Diego, Calif., USA), was used to determine the efficacy of compound 24 on attenuating the MK-801 induced deficit of sensorimotor gating function in mice. Under 65 dB background noise, each session was composed of 5-minutes accumulation period followed by 64 trials in four blocks. The pulse alone (PA) trial was a 40 ms, 120 dB white noise burst. In the prepulse (pp)+pulse trials, a 20 ms white noise prepulse stimuli of 71 dB (pp6), 75 dB (pp10), and 83 dB (pp18) were presented 100 ms before a 40 ms 120 dB pulse. The non-stimulus (NS) trials presented the background noise only. The initial and the last blocks were composed of six PA trials, respectively. Two middle blocks consisted of PA, pp+pulse, and NS trials. These trials were presented pseudo-randomly and separated by intertribal intervals of 15 seconds on average (varying between 10 to 20 s). The percentage of prepulse inhibition was evaluated by the following formula: % PPI=100× [(PA score)−(pp-P score)]/(PA score), where the PA score was the average of the PA value in the middle blocks.

Series [2] is described as follows: Log P, n-octanol/water partition coefficient, HPLC. The class given is physicochemical. As to the method: The sample compounds tested in the log P experiments included enriched tannic acid (prepared by the enrichment method 10 of U.S. Ser. No. 10/105,378), compounds 21, 24, 27, 46, and 56. First, n-Octanol and water was saturated with each other to achieve partition equilibrium and the two phases were separated for further use. Sample compounds were dissolved in water and n-octanol phase, respectively. Both phases were mixed by vertical rotation movement. After the water and n-octal phases reached equilibrium state, both phases were analyzed to determine the concentrations of the sample compounds for the determination of log P values. All samples were performed in a Shimadzu CBM-20A FfPLC system. The chromatographic separation was carried out on a 5 μm, Kinetex C18 100 Å LC column (100×4.6 mm). The mobile phase was 0.1% formic acid in water and acetonitrile/Methanol set as gradient. Flow rate used was 1.2 mL/min. Column was at room temperature 20±5° C.
The partition coefficient abbreviated P is calculated based on the concentration in n-octanol divided by the concentration in water. The formula of log P is shown below: […]

Another series is described as follows: in vivo. Conditions: C57BL/6J, mouse, po.
Series [3] is described as follows: Concentration in mouse brain after i.p. administration, HPLC-MS after tannase hydrolysis into gallic acid. The class given is in vivo, mice. Here is the method: The objective of this experiment was to compare the concentration of Compound 24 and enriched tannic acid in mouse brain after intraperitoneal (i.p.) administration. The enriched tannic acid was prepared by the enrichment method 10 of U.S. Ser. No. 10/105,378. C57BL/6J mice at 14 weeks of age were divided into two groups with 3 mice each. The mice in group I and II were, respectively, i.p. injected with Compound 24 at 30 mg/kg and enriched tannic acid at 15 mg/kg once every two days for three months. The brain sample was collected from each animal at 24 hours after the final i.p. administration and immediately frozen and stored at −70° C. until further use.
The amounts of Compound 24 and enriched tannic acid in mice brain were analyzed by high performance liquid chromatography-mass spectrometry (HPLC-MS) after enzymatic hydrolysis into gallic acid. Each frozen brain sample was homogenized with 4-fold volume of deionized water (ddH2O) using a handheld tissue homogenizer (BT Lab Systems). […]
Chromatographic analysis was performed using a Phenomenex Kinetex C8 column (150×4.6 mm, 5 μm). […] Quantitation was done using the selected-ion monitoring chromatogram (SIM) mode to monitor the precursor ion of m/z 169 for gallic acid and m/z 137 for 4-hydroxybenzoic acid as an internal standard. […]

Sequence of human D-amino acid oxidase (hDAAO) (P14920 whole entry): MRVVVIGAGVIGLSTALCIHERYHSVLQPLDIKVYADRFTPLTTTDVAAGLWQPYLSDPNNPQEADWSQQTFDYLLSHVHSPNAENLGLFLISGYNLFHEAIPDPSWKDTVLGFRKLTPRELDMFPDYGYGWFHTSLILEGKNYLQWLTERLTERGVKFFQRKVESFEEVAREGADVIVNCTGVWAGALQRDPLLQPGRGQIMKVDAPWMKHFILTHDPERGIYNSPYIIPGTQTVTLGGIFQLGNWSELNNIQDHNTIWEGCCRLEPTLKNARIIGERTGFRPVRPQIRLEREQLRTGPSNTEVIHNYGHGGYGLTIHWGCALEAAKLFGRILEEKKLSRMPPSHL

For `O=C(OC[C@H]1O[C@H](OC(=O)c2cc(O)c(O)c(OC(=O)c3cc(O)c(O)c(OC(=O)c4cc(O)c(O)c(O)c4)c3)c2)[C@H](OC(=O)c2cc(O)c(O)c(OC(=O)c3cc(O)c(O)c(OC(=O)c4cc(O)c(O)c(O)c4)c3)c2)[C@@H](OC(=O)c2cc(O)c(O)c(OC(=O)c3cc(O)c(O)c(OC(=O)c4cc(O)c(O)c(O)c4)c3)c2)[C@@H]1OC(=O)c1cc(O)c(O)c(OC(=O)c2cc(O)c(O)c(OC(=O)c3cc(O)c(O)c(O)c3)c2)c1)c1cc(O)c(O)c(OC(=O)c2cc(O)c(O)c(OC(=O)c3cc(O)c(O)c(O)c3)c2)c1` [Compound 24, (2R,3R,4S,5R,6R)-6-(((3-((3,4-dihydroxy-5-((3,4,5-trihydroxybenzoyl)oxy)benzoyl)oxy)-4,5-dihydroxybenzoyl)oxy)methyl)tetrahydro-2H-pyran-2,3,4,5-tetrayl tetrakis(3-((3,4-dihydroxy-5-((3,4,5-trihydroxybenzoyl)oxy)benzoyl)oxy)-4,5-dihydroxybenzoate)], the midpoint of inhibition in series [1], the IC50, lay at 13 nM. Further, the pre-pulse inhibition percentage result with MK-801 treated mice (71 dB pre-pulse intensity) and in the series on MK-801 treated mice (83 dB pre-pulse intensity) was “moderately increased the inhibition percentage” in each case. Further, the “MK-801 induced pre-pulse inhibition deficit” value in the series with MK-801 treated mice (75 dB pre-pulse intensity) is “significantly improved”. This molecule registered a logP in series [2] of 0.58. In “in vivo”, this molecule had an MTD at 7 day of 4500 mg/kg. Further, the “Concentration (amount per g brain tissue)” value in series [3] (30 mg/kg i.p. once every two days for three months, 24 hours after final dose) was 2714.19 ng/g. For the same molecule, in series [3] (compound 24 at 30 mg/kg vs enriched tannic acid at 15 mg/kg i.p.), the “brain concentration relative to enriched tannic acid” value is “more than 9 times”.

Broadly, the IC50 is the concentration that gives 50% inhibition. As a reminder, the logP is a log measure of how a compound divides between an organic and an aqueous phase.
